The source of these data is the Deep4Chem optical property database.

A short description of this data set: solvent given as SMILES.

`COc1ccc(/C=C/C2=[O+][B-](F)(F)OC(/C=C/c3ccc(OC)c4ccccc34)=C2c2ccccc2)c2ccccc12` displayed an emission maximum (in CC#N) of 649 nm; an emission maximum (in CC(C)=O) of 631 nm; an emission maximum (in CCOC(C)=O) of 603 nm; an emission maximum (in CCOCC) of 583 nm; an emission maximum (in ClC(Cl)(Cl)Cl) of 577 nm; an emission maximum (in ClCCl) of 633 nm.

The compound `Cc1cccc(C)c1N1C(c2ccccc2)=Cc2ccc3ccccc3[n+]2[B-]1(F)F` showed an emission maximum (in ClCCl) of 468 nm.

Compound `F[B-]1(F)n2c(cc3c2-c2ccccc2CC3)C(c2ccc(I)cc2)=C2C=C3CCc4ccccc4C3=[N+]21` came in with an emission maximum (in ClC(Cl)Cl) of 647 nm.

Consider `CCCCCCC(CCCCCC)N1C(=O)c2cccc3c(-c4ccc(OC)c5ccccc45)ccc(c23)C1=O`, for which the emission maximum by setting is: (in CCCCCC) 427.1 nm; (in CCCCCCCCCCCCCC) 431.7 nm; (in CCCCCCCCCCCO) 532.4 nm; (in CCCCO) 576.8 nm; (in CN(C)C=O) 581.8 nm; (in Cc1ccccc1) 478 nm. The emission maximum (in ClC(Cl)Cl) is 509.7 nm.

`COc1ccc2[nH]cc(/C=C/C3=[NH+]c4cccc5cccc3c45)c2c1`: for the setting “in CO”, the emission maximum amounted to 583 nm.

Under “in CC#N”, `O=c1oc2cc3c(cc2cc1/C=C/c1ccccc1)OCO3` showed an emission maximum of 469 nm.

Turning to `Cc1cccc2nc3[nH]c(=O)[nH]c(=O)c3nc12`, the emission maximum (in CC#N) is 452 nm.

Consider `C[Si]1(C)C2=C(c3ccc(N(c4ccccc4)c4ccccc4)cc31)P(=O)(c1ccccc1)c1ccccc12` (stereo unspecified), for which the emission maximum reads like this: (in CC#N) 611 nm; (in CO) 624 nm; (in Cc1ccccc1) 544 nm.

Consider `C(#Cc1ccccc1)c1ccccc1`, for which the emission maximum reads like this: (in CO) 307 nm; (in ClC(Cl)Cl) 320 nm; (in ClCCl) 302 nm.

With `CCCCC[n+]1ccc(/C=C/c2ccc(N(C)C)c3ccccc23)c2ccccc21`, the emission maximum was determined as 697 nm (in C1CCOC1); 680 nm (in C1COCCO1); 720 nm (in CC#N); 714 nm (in CC(C)=O); 695 nm (in CCCCO); 670 nm (in CCO). The emission maximum reads like this: (in CN(C)C=O) 721 nm; (in CO) 708 nm; (in CS(C)=O) 720 nm; (in O) 697 nm; (in c1ccccc1) 675 nm; (in c1ccncc1) 706 nm.

As for `O=Cc1ccc(-c2ccc(O)c(-c3nc4ccccc4s3)c2)o1`, the emission maximum by setting is: (in CCO) 550 nm; (in ClCCl) 553 nm; (in O) 564 nm.

Take `COc1cc(C2=c3c(c4ccc(C(C)(C)C)cc4c4c(OC)c(OC)c(OC)cc34)=[N+]3C2=Nc2c(-c4cc(OC)c(OC)c(OC)c4)c4c5cc(OC)c(OC)c(OC)c5c5cc(C(C)(C)C)ccc5c4n2[B-]3(F)F)cc(OC)c1OC`: for the setting “in Cc1ccccc1”, the emission maximum is 820 nm.

The compound `C(#Cc1cc2ccc3cc(C#Cc4ccccc4)cc4ccc(c1)c2c34)c1ccccc1` yielded an emission maximum (in Cc1ccccc1) of 418 nm.

Compound `CC1(C)c2ccccc2N(c2ccc(-c3nc4c(C#N)ccc(C#N)c4nc3-c3ccc(N4c5ccccc5C(C)(C)c5ccccc54)cc3)cc2)c2ccccc21` had an emission maximum (in Cc1ccccc1) of 663 nm.

Regarding `CC(C)(C)c1ccc2c(c1)c1cc(C(C)(C)C)ccc1n2-c1ccc(S(=O)(=O)c2ccc(-n3c4ccc(C(C)(C)C)cc4c4cc(C(C)(C)C)ccc43)cn2)nc1`, the emission maximum runs as follows: (in Cc1ccccc1) 444.37 nm; (in O=P(c1ccccc1)(c1ccccc1)c1ccc2sc3cccc(P(=O)(c4ccccc4)c4ccccc4)c3c2c1) 444 nm.

Turning to `COc1ccc(C2=C(c3ccc(OC)cc3)c3cccc4c5c(cc(c34)O2)=NC2C=C(Br)C(Br)=CC2N=5)cc1` (stereo unspecified), for the setting “in ClCCl”, the emission maximum was determined as 609 nm.

Take `c1cc2c3ccc[n+]4cccc(c5ccc[n+](c1)c25)c34`: the emission maximum is on record as 442 nm (in CC#N), 443 nm (in CS(C)=O), 441 nm (in C[N+](=O)[O-]) and 441 nm (in O).

In turn, `Oc1ccc2ccccc2c1/C=N/c1ccccc1/N=C/c1c(O)ccc2ccccc12` displayed an emission maximum (in CC#N) of 496 nm.

As for `CC(C)(C)c1ccc(-n2c(-c3ccc(-c4cccc(-c5c(-c6ccccc6)nc6ccccn56)c4)cc3)nc3c4ccccc4c4ccccc4c32)cc1`, the emission maximum (in ClCCl) is 417 nm.

For `Cc1c(C)c2c3ccccc3[nH]c2c2ccccc12`, under “in ClCCl”, the emission maximum is listed as 370 nm.

With `CCCn1c2cccc3oc4cccc5c4[c+](c32)c2c1cccc2n5CCC`, the emission maximum (in CC#N) is 590 nm.

As to `O=C1CCCC2=C1C(c1ccccc1)c1c(c3ccccc3oc1=O)N2` (stereo unspecified), the emission maximum (in CS(C)=O) was 440 nm.

For the compound `CC(C)Oc1ccc(C#Cc2ccc3ccc(=O)oc3c2)cc1`, the emission maximum (in CC#N) is given as 470 nm.

For the compound `COCCN1C(=O)/C(=C/c2cccc(N(C)C)c2)N=C1C`, the emission maximum runs as follows: (in C1CCOC1) 563 nm; (in CC#N) 632 nm; (in CCCCCC) 491 nm.

For `CC1(C)CC(/N=C/c2ccc3ccc4cccc5ccc2c3c45)CC(C)(C)N1[O]`, the emission maximum by setting is: (in C1CCCCC1) 385 nm; (in CC#N) 375 nm; (in CO) 400 nm; (in ClC(Cl)Cl) 375 nm.

`COc1ccc2c(c1)nc(-c1ccccc1)n2-c1ccccc1` came in with an emission maximum (in CC#N) of 391 nm.

`CC1(C)C(/C=C/C2=C(Cl)C(=C/C=C3/N(Cc4ccc([N+](=O)[O-])cc4)c4ccccc4C3(C)C)/CCC2)=[N+](Cc2ccc([N+](=O)[O-])cc2)c2ccccc21`: the emission maximum (in CO) is reported as 807 nm.

The compound `F[B-]1(F)n2c(-c3ccccc3)c3ccc4ccccc4c3c2N=C2c3c(ccc4ccccc34)C(c3ccccc3)=[N+]21` had an emission maximum (in ClCCl) of 753 nm.

`O=C1c2ccccc2-c2nc3ccccc3n21` displayed an emission maximum (in ClCCl) of 519 nm.

In turn, `CCn1c2ccccc2oc2c(C#N)c3oc4ccccc4oc3c(C#N)c21` had an emission maximum (in ClC(Cl)Cl) of 555 nm.

As to `O=C1c2ccccc2C2=Cc3ccc4ccccc4[n+]3[B-](F)(F)N12`, the emission maximum by setting is: (in CCO) 465 nm; (in Cc1ccccc1) 474 nm; (in ClCCl) 464 nm.

`O=c1[nH]c2ccccc2[nH]1`: the emission maximum was found to be 315 nm (in C1CCOC1); 313.01 nm (in CC#N); 307 nm (in CC(C)=O); 297 nm (in CCCCCCC); 302 nm (in CCCCCl); 311 nm (in CCCCO). The emission maximum is given as 310 nm (in CCCO), 310 nm (in CCCOCCC) and 310 nm (in CCO).

In the case of `COc1cccc(-n2c(-c3ccc(O)cc3)nc(C)c2C)c1`, the emission maximum is, setting by setting: (in C1COCCO1) 368 nm; (in CC#N) 364 nm; (in CCCCCC) 370 nm; (in CCCCO) 371 nm; (in CCO) 372 nm; (in CCOC(C)=O) 368 nm. Also, the emission maximum runs as follows: (in CO) 369 nm; (in ClC(Cl)Cl) 372 nm; (in ClCCl) 369 nm; (in c1ccccc1) 371 nm.

`Cc1ccc(C(=O)OCc2ccc3c4cccc5cccc(c6cccc2c63)c54)cc1` yielded an emission maximum (in CCO) of 445 nm.

Where the note is “in Cc1ccccc1”, `CC(C)c1cc(C(C)C)c(B2c3ccccc3Oc3cc(N4c5ccccc5C(C)(C)c5ccccc54)ccc32)c(C(C)C)c1` came in with an emission maximum of 475 nm.
